6 substances from US20090118174A1, “Novel peptides and methods for the treatment of inflammatory disorders” (Auckland Uniservices Limited, priority 2005, published 2009) can be followed below.

Read-outs that look alike come from different tables or passages of the source. No end group written: not given here.

In data set [1] the test system is αLβ2-mediated adhesion of Mn++-activated H9 cells to ICAM-1. Kind of data set: Cell adhesion assay: adhesion of Mn2+-activated H9 cells to ICAM-1-Fc. The data set is classed as cell-based, human. The note with it: for inhibition of cell adhesion to ICAM-1 (in words): Mn++-activated H9 cells, cell-permeable fusion peptide; for blocking of adhesion (in words): at 100 μM. On the procedure: The human T lymphoma cell line H9, was purchased from the American Type Culture Collection, Rockville, Md. It was cultured at 37° C. in 1640 medium supplemented with 50 U/ml penicillin, 50 μg/ml streptomycin, 200 μg/ml L-glutamine, 10% (v/v) FCS and 0.05 mM β-mercaptoethanol. All synthetic peptides were custom made by Mimotopes Pty Ltd., Victoria, Australia. The β2cyt peptides were N-terminally fused during synthesis to biotinylated penetratin (RQIKIWFQNRRMKWKK—Seq ID No. 22) or to a biotinylated D-isomeric form of an R9 polymer (Seq ID No. 32) to render them cell-permeable.
The soluble ICAM-1-Fc chimera was produced using the glutamine synthetase gene amplification system. The extracellular portions of human ICAM-1 fused to the Fc domain of human IgG1 were expressed from the pEE14 vector (kindly provided by Dr Chris Bebbington, Celltech Ltd, UK) in CHO K1 cells as described previously (18).
Lab-Tek 16-well glass slides (Nunc) or flat-bottom 96-well plates (Nunc Maxisorp) were coated overnight at 4° C. with purified ICAM-1-Fc at 10 μg/well in 100 μl of 0.1 M carbonate buffer (pH 9.5). After washing plates were blocked with 100% heat-inactivated FCS, and washed with Hanks balanced salt solution (HBSS) containing 10 mM Hepes, 2 mM Ca^2+ and 2 mM Mn^2+. H9 cells were either left unlabeled or labeled with the fluorescent dye chloromethyl fluorescein diacetate (CMFDA; Molecular Probes, Oregon). For peptide inhibition studies, H9 cells were preincubated with peptide in serum-free medium for 30 min at 37° C. and activated by suspension in an Mn^2+-containing buffer (HBSS: 10 mM Hepes containing 2 mM Ca^2+, 2 mM Mn^2+, and 2% FCS). Human IgG1 Ab (10 μg/ml; Sigma) was added to prevent nonspecific capture of cells to the Fc portion of […]. Cells were checked for viability by trypan blue exclusion, added to wells (10^6cells/well), and incubated for 30 min at 37° C. in a humidified atmosphere of 5% CO2. Non-adherent cells were removed by inverse centrifugation of the plates at 70×g for 5 min followed by gentle pipette washing. The number of unlabeled adherent cells was determined by counting the number of adherent cells in four independent fields at 100× magnification under an inverted microscope. The fluorescence of CMFDA-labeled adherent cells was measured using a VICTOR1420 multilabel counter (Wallac). Representative data are reported as mean±SD of two independent experiments performed in duplicate.

Where [2] appears, read: at 25 μM, Mn++-activated H9 cells to ICAM-1, fused to r9.
The mark [3] stands for this setting: at 50 μM, Mn++-activated H9 cells to ICAM-1, fused to r9.
Where [4] appears, read: at 6 μM, H9 cells to ICAM-1, r9 fusion.

On to YRRFEKEKLKSQWNND, for which, in the data set with H9 cells (human cell line H9, biotinylated peptide detected with streptavidin-FITC), the “uptake of penetratin fusion peptide into cells” value is “readily taken up”.
In the case of “NPLFKSATTT (not fully specified (N-terminus); also: biotinylated r9 carrier, attachment not given here) [β2cyt peptide fused to r9 (biotinylated D-isomeric nine-arginine polymer) to render it cell-permeable]”, in data set [1], the “inhibition of cell adhesion to ICAM-1 (in words)” value is “active”. Also, the inhibition of adhesion in data set [1] (setting [2]) was ~50%; in data set [1] (setting [3]) it was ~80%.
For the substance KALIHLSDLREY, in the data set on H9 cells, the “uptake of penetratin fusion peptide into cells” value is listed as “readily taken up”.
In data set [1] (setting [4]), “r9-NPKF: core talin-binding motif of β2cyt synthesized as fusion with the r9 carrier peptide (not fully specified (N-terminus); printed as r9-NPKF)” gave an inhibition of adhesion of 82%. For the same substance, the “blocking of adhesion (in words)” value in data set [1] (H9 cells to ICAM-1, r9 fusion) was “almost completely blocked adhesion”.
For the substance “VMNPKFAES (not fully specified (N-terminus); also: biotinylated r9 carrier, attachment not given here) [β2cyt peptide fused to r9 (biotinylated D-isomeric nine-arginine polymer) to render it cell-permeable]”, the “inhibition of cell adhesion to ICAM-1 (in words)” value in data set [1] is “active”. Moreover, the inhibition of adhesion is recorded as ~50% in data set [1] (setting [2]) and ~80% in data set [1] (setting [3]).
As for “r9-NPLFKS: β2cyt hexamer synthesized as fusion with the r9 carrier peptide (not fully specified (N-terminus); printed as r9-NPLFKS)”, in data set [1] (setting [4]), the inhibition of adhesion is 24%. Moreover, in data set [1] (H9 cells to ICAM-1, r9 fusion), the “blocking of adhesion (in words)” value is “almost completely blocked adhesion”.
